The target in assay [1] is T1, menin/MLL (terbium chelate-labeled menin, FITC-MBM1 peptide) (Homo sapiens, UniProt O00255, T541A).
T1 construct: Menin (a.a 1-610-6xhis tag)
T1 sequence (O00255 with tags, fused parts or gaps T541A): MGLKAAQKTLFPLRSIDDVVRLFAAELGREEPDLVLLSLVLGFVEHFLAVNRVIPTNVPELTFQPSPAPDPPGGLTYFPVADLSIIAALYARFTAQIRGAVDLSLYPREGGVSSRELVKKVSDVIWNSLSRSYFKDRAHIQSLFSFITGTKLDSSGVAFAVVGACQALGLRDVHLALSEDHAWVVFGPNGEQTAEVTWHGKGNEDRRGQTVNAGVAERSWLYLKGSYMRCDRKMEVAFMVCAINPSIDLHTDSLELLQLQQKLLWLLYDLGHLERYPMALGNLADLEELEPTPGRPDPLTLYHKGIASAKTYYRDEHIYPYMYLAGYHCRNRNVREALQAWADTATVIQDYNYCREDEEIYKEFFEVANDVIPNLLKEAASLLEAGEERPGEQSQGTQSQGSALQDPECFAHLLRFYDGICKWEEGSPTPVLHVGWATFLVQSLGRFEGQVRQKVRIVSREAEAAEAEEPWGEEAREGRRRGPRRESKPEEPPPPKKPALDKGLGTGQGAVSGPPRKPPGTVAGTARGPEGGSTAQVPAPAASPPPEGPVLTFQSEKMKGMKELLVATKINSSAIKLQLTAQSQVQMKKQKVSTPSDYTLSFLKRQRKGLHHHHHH
Put plainly: Menin/MLL homogenous time-resolved fluorescence (HTRF) assay. The class given is binding. Particulars: 30 min incubation. In short, it runs like this:
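Tb-cryptate menin (1-610, 6xHis) 200 pM + cmpd, 30 min RT; + FITC-MBM1 75 nM, 15 min RT. 40 mM Tris pH 7.5, 50 mM NaCl, 1 mM DTT, 0.05% Pluronic F-127, 0.5% DMSO. HTRF 520/490; 11-pt 4-fold from 10 μM; IC50 fit.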
In general terms: In TR-FRET formats the signal depends on donor and acceptor labels being close together.

In a further assay the test system is MOLM14 cells. Put plainly: Proliferation assay, spheroid-like growth, MOLM14 (MLL-AF9 rearranged). Type of assay: cell-based, human. The conditions noted are these: Homo sapiens, MOLM-14, 192 h, 8 days, confluence as measure of spheroid size, read-out: spheroid assay_OneTime MOLM14 IC50. In short, it runs like this:
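200 MOLM14 or 300 KO-52 cells/well, ultra-low attachment, compound dilutions, DMSO 0.3%; 8 d, 37 °C, 5% CO2. Read: live-cell imaging confluence (spheroid size) day 8. Absolute IC50, min 0%/max 100% fixed, variable slope.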

What is called IC50 is the point on the concentration scale where inhibition reaches its midpoint. Take `CC(C)[C@H]([C@H]1C[C@@H](Nc2ccn3ccnc3c2)C1)N1CC2(CCN(c3ncnnc3Oc3ccc(F)cc3-c3cncnc3C3CC3)C2)C1` (single isomer, unassigned) [Compound 406]: the IC50 in assay [1] was determined as 300 pM; in the assay on MOLM14 cells, 42000 pM.

For the compound `CC(C)[C@H]([C@H]1C[C@@H](Nc2ccnc(NS(C)(=O)=O)n2)C1)N1CC2(CCN(c3ncnnc3Oc3ccc(F)cc3-c3cncnc3C3CC3)C2)C1` (single isomer, unassigned) [Compound 408], the IC50 in assay [1] is 140 pM; in the assay with MOLM14 cells it was 220000 pM.

Regarding `CC(=O)Nc1cncc(N[C@H]2C[C@@H](C(C(C)C)N3CC4(CCN(c5ncnnc5Oc5ccc(F)cc5-c5cncnc5C5CC5)C4)C3)C2)c1` (single isomer, unassigned) [Compound 410], the IC50 is 110 pM in assay [1] and 19000 pM in the assay on MOLM14 cells.

`CC(C)C(C1CC(Nc2ncc3cn[nH]c3n2)C1)N1CC2(CCN(c3ncnnc3Oc3ccc(F)cc3-c3cncnc3C3CC3)C2)C1` (single isomer, unassigned) [Compound 411]: the IC50 in assay [1] came out at 150 pM; in the assay with MOLM14 cells, 10000 pM.

Take `CC(C)[C@H]([C@H]1C[C@@H](Nc2ccn3ccnc3n2)C1)N1CC2(CCN(c3ncnnc3Oc3ccc(F)cc3-c3cncnc3C3CC3)C2)C1` (single isomer, unassigned) [Compound 412]: the IC50 in assay [1] is 160 pM; in the assay on MOLM14 cells it was under 1800 pM.

`CC(C)[C@H]([C@H]1C[C@@H](Nc2ncnc3[nH]ncc23)C1)N1CC2(CCN(c3ncnnc3Oc3ccc(F)cc3-c3cncnc3C3CC3)C2)C1` (single isomer, unassigned) [Compound 413]: the IC50 stood at 80 pM in assay [1] and 26000 pM in the assay with MOLM14 cells.

In the case of `CC(=O)Nc1cc(N[C@H]2C[C@@H](C(C(C)C)N3CC4(CCN(c5ncnnc5Oc5ccc(F)cc5-c5cncnc5C5CC5)C4)C3)C2)cnn1` (single isomer, unassigned) [Compound 414], the IC50 in assay [1] came to 100 pM; with MOLM14 cells, 21000 pM.

Turning to `CNC(=O)c1cnc(N[C@H]2C[C@@H]([C@@H](C(C)C)N3CC4(CCN(c5ncnnc5Oc5ccc(F)cc5-c5cnc(C)nc5C5CC5)C4)C3)C2)o1` (single isomer, unassigned) [Compound 416], the half-maximal inhibitory concentration (IC50) in assay [1] was determined as 170 pM; in the assay on MOLM14 cells it was 8900 pM.

`CNC(=O)c1cnc(N[C@H]2C[C@@H]([C@@H](C(C)C)N3CC4(CCN(c5ncnnc5Oc5ccc(F)cc5-c5cnc(C)nc5C5CC5)C4)C3)C2)s1` (single isomer, unassigned) [Compound 417]: the IC50 was found to be 50 pM in assay [1] and 1800 pM in the assay with MOLM14 cells.

Turning to `CC(=O)Nc1cc(N[C@H]2C[C@@H]([C@@H](C(C)C)N3CC4(CCN(c5ncnnc5Oc5ccc(F)cc5-c5cncnc5C5CC5)C4)C3)C2)ncn1` (single isomer, unassigned) [Compound 418], the IC50 in assay [1] amounted to 70 pM; in the assay on MOLM14 cells it was 9000 pM.

Regarding `COc1cc(N[C@H]2C[C@@H]([C@@H](C(C)C)N3CC4(CCN(c5ncnnc5Oc5ccc(F)cc5-c5cncnc5C5CC5)C4)C3)C2)cnn1` (single isomer, unassigned) [Compound 419], the IC50 stood at 140 pM in assay [1] and 5000 pM in the assay with MOLM14 cells.

Regarding `CC(C)[C@H]([C@H]1C[C@@H](Nc2ccnc3[nH]c(=O)ccc23)C1)N1CC2(CCN(c3ncnnc3Oc3ccc(F)cc3-c3cncnc3C3CC3)C2)C1` (single isomer, unassigned) [Compound 420], the IC50 in assay [1] is about 390 pM; in the assay with MOLM14 cells, 290000 pM.

On to `CNC(=O)Nc1cc(N[C@H]2C[C@@H](C(C(C)C)N3CC4(CCN(c5ncnnc5Oc5ccc(F)cc5-c5cncnc5C5CC5)C4)C3)C2)ccn1` (single isomer, unassigned) [Compound 421], for which the figures for the concentration for half-maximal inhibition (IC50) (in assay [1]; in the assay on MOLM14 cells) were 130 pM and under 1800 pM, respectively.

Turning to `CC(C)[C@H]([C@H]1C[C@@H](Nc2ncnc3[nH]ncc23)C1)N1CC2(CCN(c3ncnnc3Oc3ccc(F)cc3-c3cncnc3C3CC3)C2)C1` (single isomer, unassigned) [Compound 422], the values for the IC50 (in assay [1]; with MOLM14 cells) were about 270 pM and 88000 pM, respectively.

As for `Cc1cc(-c2cnnc(N[C@H]3C[C@@H]([C@@H](C(C)C)N4CC5(CCN(c6ncnnc6Oc6ccc(F)cc6-c6cncnc6C6CC6)C5)C4)C3)c2)[nH]n1` (single isomer, unassigned) [Compound 423], the IC50 stood at 180 pM in assay [1] and 9000 pM in the assay on MOLM14 cells.

Turning to `CC(C)[C@H]([C@H]1C[C@@H](Nc2cnnc(-c3ccn[nH]3)c2)C1)N1CC2(CCN(c3ncnnc3Oc3ccc(F)cc3-c3cncnc3C3CC3)C2)C1` (single isomer, unassigned) [Compound 424], the IC50 turned out to be 170 pM in assay [1] and 4000 pM with MOLM14 cells.

`CC(C)C([C@H]1C[C@@H](Nc2cccc(CN(C)C)n2)C1)N1CC2(CCN(c3ncnnc3Oc3ccc(F)cc3-c3cncnc3C3CC3)C2)C1` (single isomer, unassigned) [Compound 425]: the IC50 in assay [1] was found to be 30 pM; in the assay on MOLM14 cells, 6000 pM.

Consider `Cc1cn2ccc(N[C@H]3C[C@@H](C(C(C)C)N4CC5(CCN(c6ncnnc6Oc6ccc(F)cc6-c6cncnc6C6CC6)C5)C4)C3)cc2n1` (single isomer, unassigned) [Compound 426], for which the IC50 in assay [1] is 90 pM; with MOLM14 cells it was under 1800 pM.

Turning to `COC(=O)Nc1cc(N[C@H]2C[C@@H]([C@@H](C(C)C)N3CC4(CCN(c5ncnnc5Oc5ccc(F)cc5-c5cncnc5C5CC5)C4)C3)C2)ccn1` (single isomer, unassigned) [Compound 427], the IC50 in assay [1] was about 110 pM; in the assay on MOLM14 cells, under 1800 pM.

Turning to `CC(C)C([C@H]1C[C@@H](Nc2cccc(CN3CCOCC3)n2)C1)N1CC2(CCN(c3ncnnc3Oc3ccc(F)cc3-c3cncnc3C3CC3)C2)C1` (single isomer, unassigned) [Compound 428], the IC50 in assay [1] came to 90 pM; with MOLM14 cells, 16000 pM.

Regarding `CC(=O)Nc1nccc(N[C@H]2C[C@@H]([C@@H](C(C)C)N3CC4(CCN(c5ncnnc5Oc5ccc(F)cc5-c5cncnc5C5CC5)C4)C3)C2)c1F` (single isomer, unassigned) [Compound 429], the IC50 in assay [1] was 170 pM; in the assay with MOLM14 cells it was 3300 pM.

With `Cc1nnc(-c2cc(N[C@H]3C[C@@H]([C@@H](C(C)C)N4CC5(CCN(c6ncnnc6Oc6ccc(F)cc6-c6cncnc6C6CC6)C5)C4)C3)ccn2)[nH]1` (single isomer, unassigned) [Compound 430], the values for the IC50 (in assay [1]; in the assay on MOLM14 cells) were 110 pM and 3400 pM, respectively.

For `CC(C)[C@H]([C@H]1C[C@@H](Nc2cnc3nn[nH]c3c2)C1)N1CC2(CCN(c3ncnnc3Oc3ccc(F)cc3-c3cncnc3C3CC3)C2)C1` (single isomer, unassigned) [Compound 431], the IC50 is 540 pM in assay [1] and 79000 pM with MOLM14 cells.

For the compound `CNC(=O)c1cc(N[C@H]2C[C@@H]([C@@H](C(C)C)N3CC4(CCN(c5ncnnc5Oc5ccc(F)cc5-c5cncnc5C5CC5)C4)C3)C2)cnn1` (single isomer, unassigned) [Compound 432], the IC50 in assay [1] was determined as 170 pM; in the assay with MOLM14 cells, 22000 pM.

As to `CC(C)[C@H]([C@H]1C[C@@H](Nc2cc3nccn3cn2)C1)N1CC2(CCN(c3ncnnc3Oc3ccc(F)cc3-c3cncnc3C3CC3)C2)C1` (single isomer, unassigned) [Compound 433], the concentration for half-maximal inhibition (IC50) turned out to be 150 pM in assay [1] and 2000 pM in the assay on MOLM14 cells.

For the compound `CNC(=O)c1coc(N[C@H]2C[C@@H](C(C(C)C)N3CC4(CCN(c5ncnnc5Oc5ccc(F)cc5-c5cncnc5C5CC5)C4)C3)C2)n1` (single isomer, unassigned) [Compound 438], the values for the IC50 (in assay [1]; in the assay with MOLM14 cells) were 160 pM and 4000 pM, respectively.

Take `CNC(=O)c1nnc(N[C@H]2C[C@@H]([C@@H](C(C)C)N3CC4(CCN(c5ncnnc5Oc5ccc(F)cc5-c5cncnc5C5CC5)C4)C3)C2)o1` (single isomer, unassigned) [Compound 439]: the results for the IC50 (in assay [1]; in the assay on MOLM14 cells) were 390 pM and 25000 pM, respectively.

As for `C[C@@H]([C@H]1C[C@@H](N)C1)N1CC2(CCN(c3ncnnc3Oc3ccc(F)cc3-c3cncnc3C3CC3)C2)C1` (single isomer, unassigned) [Compound 441], the IC50 amounted to 920 pM in assay [1] and 680000 pM in the assay on MOLM14 cells.

`CNC(=O)c1nnc(N[C@H]2C[C@@H]([C@@H](C(C)C)N3CC4(CCN(c5ncnnc5Oc5ccc(F)cc5-c5cncnc5C5CC5)C4)C3)C2)s1` (single isomer, unassigned) [Compound 442]: the figures for the IC50 (in assay [1]; in the assay on MOLM14 cells) were 210 pM and 4000 pM, respectively.

The values are drawn from US20240417405A1, “Substituted Spiro Derivatives” (Janssen Pharmaceutica NV, priority 2021, published 2024).
